Measured values reported in ChEMBL document CHEMBL4825751, “Design, synthesis, and antitumor activity evaluation of steroidal oximes” (Bioorg Med Chem, 2021).
Active and inactive are the calls of the source. The rule behind the calls is not given here.

How the values were obtained:
[1] = tested on: PC-3; assay: Anticancer activity against human PC-3 cells assessed as inhibition of cell proliferation measured after 72 hrs by MTT assay; type: functional, cell-based; conditions: PC-3, 72 h
[2] = tested on: HepG2; assay: Anticancer activity against human HepG2 cells assessed as inhibition of cell proliferation measured after 72 hrs by MTT assay; type: functional, cell-based; conditions: HepG2, 72 h
[3] = tested on: PC-3; assay: Induction of oxidative stress in human PC-3 cells assessed as increase in superoxide anion level at 15 uM incubated for 24 hrs by DHE based red fluorescence assay; type: functional, cell-based
[4] = tested on: PC-3; assay: Induction of apoptosis in human PC-3 cells assessed as increase in BAX/BCL-2 ratio at IC50 concentration measured after 72 hrs; type: functional, cell-based
[5] = tested on: WiDr; assay: Antiproliferative activity aginst human WiDr cells assessed as reduction in cell viability at IC50 concentration measured after 72 hrs by annexin -V and propidium iodide staining based flow cytometry analysis; type: functional
[6] = tested on: NCI-H1299; assay: Anticancer activity against human H1299 cells assessed as inhibition of cell proliferation measured after 72 hrs by MTT assay; type: functional, cell-based; conditions: NCI-H1299, 72 h
[7] = tested on: WiDr; assay: Effect on GSH expression in human WiDr cells incubated for 24 hrs by mercury orange based red fluorescence assay; type: functional, cell-based
[8] = tested on: PC-3; assay: Induction of cell cycle arrest in human PC-3 cells assessed as pre-G0/G1 phase at 40 uM measured after 72 hrs by propidium iodide based assay relative to control; type: functional
[9] = tested on: PC-3; assay: Induction of oxidative stress in human PC-3 cells assessed as increase in superoxide anion level at IC50 concentration incubated for 24 hrs by DHE based red fluorescence assay; type: functional, cell-based
[10] = tested on: CCD-841CoN; assay: Anticancer activity against human CCD841 CoN cells assessed as inhibition of cell proliferation measured after 72 hrs by MTT assay; type: cell-based
[11] = tested on: WiDr; assay: Induction of cell cycle arrest in human WiDr cells assessed as pre-G0/G1 phase at 40 uM measured after 72 hrs by propidium iodide based assay relative to control; type: functional
[12] = tested on: PC-3; assay: Induction of oxidative stress in human PC-3 cells assessed as increase in peroxide level at IC50 concentration incubated for 24 hrs by DCFH2 based green fluorescence assay; type: functional, cell-based
[13] = tested on: PC-3; assay: Induction of mitochondrial membrane potential loss in human PC-3 cells at IC50 concentration after 72 hrs by flow cytometry; type: functional, cell-based
[14] = tested on: PC-3; assay: Induction of oxidative stress in human PC-3 cells assessed as increase in peroxide level at 15 uM incubated for 24 hrs by DCFH2 based green fluorescence assay; type: functional, cell-based
[15] = tested on: WiDr; assay: Induction of oxidative stress in human WiDr cells assessed as increase in peroxide level at 15 uM incubated for 24 hrs by DCFH2 based green fluorescence assay; type: functional, cell-based
[16] = tested on: WiDr; assay: Induction of cell cycle arrest in human WiDr cells assessed as G2/M phase at 40 uM measured after 72 hrs by propidium iodide based assay relative to control; type: functional
[17] = tested on: PC-3; assay: Effect on GSH expression in human PC-3 cells incubated for 24 hrs by mercury orange based red fluorescence assay; type: functional, cell-based
[18] = tested on: WiDr; assay: Induction of oxidative stress in human WiDr cells assessed as increase in peroxide level at IC50 concentration incubated for 24 hrs by DCFH2 based green fluorescence assay; type: functional, cell-based
[19] = tested on: PC-3; assay: Antiproliferative activity against human PC-3 cells assessed as reduction in cell viability at IC50 concentration measured after 72 hrs by Annexin-V and propidium iodide staining based flow cytometry analysis; type: functional
[20] = tested on: PC-3; assay: Induction of apoptosis in human PC-3 cells assessed as late apoptotic/necrotic cells at 50 uM measured after 72 hrs by annexin-V and propidium iodide staining based flow cytometry analysis; type: functional
[21] = tested on: WiDr; assay: Induction of oxidative stress in human WiDr cells assessed as increase in superoxide anion level at 15 uM incubated for 24 hrs by DHE based red fluorescence assay; type: functional, cell-based
[22] = tested on: PC-3; assay: Induction of apoptosis in human PC-3 cells assessed as necrotic cells at IC50 concentration measured after 72 hrs by annexin-V and propidium iodide staining based flow cytometry analysis; type: functional
[23] = tested on: PC-3; assay: Induction of cell cycle arrest in human PC-3 cells assessed as G0/G1 phase measured after 72 hrs by cell cycle analysis relative to control; type: functional
[24] = tested on: WiDr; assay: Induction of oxidative stress in human WiDr cells assessed as increase in superoxide anion level at IC50 concentration incubated for 24 hrs by DHE based red fluorescence assay; type: functional, cell-based
[25] = tested on: WiDr; assay: Anticancer activity against human WiDr cells assessed as inhibition of cell proliferation measured after 72 hrs by MTT assay; type: functional, cell-based
[26] = tested on: WiDr; assay: Induction of mitochondrial membrane potential loss in human WiDr cells at IC50 concentration after 72 hrs by flow cytometry; type: functional, cell-based
[27] = tested on: WiDr; assay: Induction of apoptosis in human WiDr cells assessed as increase in BAX/BCL-2 ratio at IC50 concentration measured after 72 hrs; type: functional, cell-based
[28] = tested on: PC-3; assay: Induction of apoptosis in human PC-3 cells assessed as apoptotic cells at IC50 concentration measured after 72 hrs by annexin-V and propidium iodide staining based flow cytometry analysis; type: functional
[29] = tested on: WiDr; assay: Induction of apoptosis in human WiDr cells assessed as late apoptotic/necrotic cells at 50 uM measured after 72 hrs by annexin-V and propidium iodide staining based flow cytometry analysis; type: functional, cell-based
[30] = tested on: PC-3; assay: Induction of apoptosis in human PC-3 cells assessed as apoptotic cells at 50 uM measured after 72 hrs by annexin-V and propidium iodide staining based flow cytometry analysis; type: functional
[31] = tested on: PC-3; assay: Induction of mitochondrial membrane potential loss in human PC-3 cells at 50 uM after 72 hrs by flow cytometry; type: functional
[32] = tested on: PC-3; assay: Induction of apoptosis in human PC-3 cells assessed as fold increase in BAX/BCL-2 ratio at 50 uM measured after 72 hrs relative to control; type: functional
[33] = tested on: PC-3; assay: Cytotoxicity against human PC-3 cells assessed as cell viability measured after 72 hrs by MTS assay; type: functional, cell-based; conditions: PC-3, 72 h

## C[C@]12CCC=C[C@@H]1CC[C@@H]1[C@@H]2CC[C@]2(C)C(=O)CC[C@@H]12
[1]
  IC50: 23.1 µM
[2]
  IC50: 15 µM

## C[C@]12CCC=C[C@@H]1CC[C@@H]1[C@@H]2CC[C@]2(C)/C(=N/O)CC[C@@H]12
[3]
  Activity: Active
[4]
  Activity: Active
[5]
  Activity: 47.67%
[6]
  IC50: 18.6 µM
[7]
  Activity: inactive
[8]
  Activity: Active
[9]
  Activity: Active
[10]
  IC50: 31.7 µM
[11]
  Activity: Active
[12]
  Activity: Active
[13]
  Activity: Active
[14]
  Activity: Active
[15]
  Activity: Active
[1]
  IC50: 13.8 µM
[16]
  Activity: Active
[17]
  Activity: inactive
[18]
  Activity: Active
[19]
  Activity: 72.74%
[20]
  Activity: 18.01%
[21]
  Activity: Active
[22]
  Activity: 49.94%
[23]
  Activity: 9.66%
[24]
  Activity: Active
[25]
  IC50: 9.1 µM
[26]
  Activity: Active
[27]
  Activity: Active
[2]
  IC50: 23.9 µM

## CCc1c2c(nc3ccc(OC(=O)N4CCC(N5CCCCC5)CC4)cc13)-c1cc3c(c(=O)n1C2)COC(=O)[C@]3(O)CC [IRINOTECAN]
[25]
  IC50: 13.9 µM

## COc1cc([C@@H]2c3cc4c(cc3[C@@H](O[C@@H]3O[C@@H]5CO[C@@H](C)O[C@H]5[C@H](O)[C@H]3O)[C@H]3COC(=O)[C@H]23)OCO4)cc(OC)c1O [ETOPOSIDE]
[6]
  IC50: 230 µM

## CC(C)C(=O)Nc1ccc([N+](=O)[O-])c(C(F)(F)F)c1 [FLUTAMIDE]
[6]
  IC50: > 500 µM
[1]
  IC50: 58 µM

## C[C@]12CC[C@H]3[C@@H](CC[C@@]45O[C@@H]4CCC[C@]35C)[C@@H]1CC/C2=N\O
[25]
  IC50: 53.4 µM
[2]
  IC50: 52.7 µM

## O=c1[nH]cc(F)c(=O)[nH]1 [FLUOROURACIL]
[25]
  IC50: 10.5 µM
[2]
  IC50: 19 µM

## C[C@]12CCCC=C1CC[C@@H]1[C@@H]2CC[C@]2(C)/C(=N/O)CC[C@@H]12
[3]
  Activity: Active
[28]
  Activity: 6.25%
[5]
  Activity: 38.67%
[6]
  IC50: 19.2 µM
[7]
  Activity: inactive
[8]
  Activity: Active
[9]
  Activity: Active
[10]
  IC50: > 75 µM
[11]
  Activity: Active
[12]
  Activity: Active
[13]
  Activity: Active
[14]
  Activity: Active
[15]
  Activity: Active
[1]
  IC50: 14.5 µM
[29]
  Activity: Active
[30]
  Activity: 32.37%
[17]
  Activity: inactive
[31]
  fold change (FC): 3.66
[18]
  Activity: Active
[19]
  Activity: 75.46%
[21]
  Activity: Active
[32]
  fold change (FC): 1.51
[24]
  Activity: Active
[25]
  IC50: 16.1 µM
[26]
  Activity: Active
[2]
  IC50: 18.2 µM

## C[C@]12CC[C@H]3O[C@H]3[C@@H]1CC[C@@H]1[C@@H]2CC[C@]2(C)/C(=N/O)CC[C@@H]12
[1]
  IC50: 77.9 µM
[25]
  IC50: 75 µM
[2]
  IC50: 64.3 µM

## C[C@]12CCCC=C1CC[C@@H]1[C@@H]2CC[C@]2(C)C(=O)CC[C@@H]12
[6]
  IC50: 21.5 µM
[1]
  IC50: 21.5 µM
[25]
  IC50: 28 µM
[2]
  IC50: 17.7 µM

## C[C@]12CC[C@H]3[C@@H](CC[C@@]45O[C@@H]4CCC[C@]35C)[C@@H]1CCC2=O
[1]
  IC50: 62.1 µM
[25]
  IC50: 59.1 µM
[2]
  IC50: 42.4 µM

## C[C@]12CC[C@H]3O[C@H]3[C@@H]1CC[C@@H]1[C@@H]2CC[C@]2(C)C(=O)CC[C@@H]12
[1]
  IC50: 46.8 µM
[25]
  IC50: 60.9 µM
[2]
  IC50: 32.6 µM

## CC(C)CCC[C@@H](C)[C@H]1CC[C@H]2[C@@H]3C/C(=N\O)C4C[C@@H](O)CC[C@]4(C)[C@H]3CC[C@]12C (some centres not stated)
[33]
  IC50: 49.8 µM
